pEC50: −log10 of the molar value. Where a SMILES comes first, the peptide text is derived from it.
Key:
[1] = test system: LG2-EBV cells (express HLA-B*3503); assay: 51Cr release assay: lysis of peptide-pulsed LG2-EBV cells by CTL 35-24; assay type: cell-based, human; conditions: LG2-EBV cells (HLA-B*3503)
Description: (§1) The same TNF assay as is described in example 2, supra, was used, except fragments of tyrosinase cDNA, rather than complete cDNA molecules, were used. Three fragments were positive, and these corresponded to nucleotides 1-1086, 427-1134, and 703-1134 of the coding region of tyrosinase cDNA. A fragment corresponding to position 574-831 was negative, leading to the conclusion that nucleotides 831-1086 encoded for the presented antigen. These correspond to amino acids 270-362 of tyrosinase, whose amino acid sequence is known. This amino acid sequence was compared to known peptides, which bind to HLA-B*3501, and its binding motif, as described by Rammensee, et al., supra, incorporated by reference. This reference describes a binding motif for HLA-B35 which is a nonapeptide, where Pro is found at position 2, and Tyr is found at position 9. For decapeptides, Ramensee, et al, gives P2 and Y10 as anchors. HLA-B*3501 was used because no information was found in the art for HLA-B*3503. Ramensee et al. also gives Phe, Met, Leu, and Ile as auxiliary anchors for P9. The peptide defined by amino acid sequence LPSSADVEF (SEQ ID NO: 1) satisfies these requisites, and is found at amino acids 312-320 of tyrosinase. […] The ^51Cr release was measured after 3.5 hours.

[2] = test system: HA7-EBV cells (express HLA B*3501); assay: 51Cr release assay: lysis of peptide-pulsed HA7-EBV cells by CTL 35-24; assay type: cell-based, human; conditions: HA7-EBV cells (HLA B*3501)
Description: as §1

[3] = varying concentrations of peptide

CC(C)C[C@H](N)C(=O)N1CCC[C@H]1C(=O)N[C@@H](CO)C(=O)N[C@@H](CO)C(=O)N[C@@H](C)C(=O)N[C@@H](CC(=O)O)C(=O)N[C@H](C(=O)N[C@@H](CCC(=O)O)C(=O)N[C@@H](Cc1ccccc1)C(=O)O)C(C)C [SEQ ID NO: 1, LPSSADVEF] (H-LPSSADVEF-OH; N-terminus and C-terminus assumed)
pEC50 ([1]; 30 minutes with peptide, then CTL 35-24, effector:target 5:1, 51Cr release after 3.5 hours, read-out: dose of peptide giving half maximal lysis): 9.00 | lysis of peptide-pulsed cells by CTL 35-24 [1, 3]: provoked lysis | pEC50 ([2]; 30 minutes with peptide, then CTL 35-24, 51Cr release after 3.5 hours, read-out: dose of peptide giving half maximal lysis): ~8.00 | lysis of peptide-pulsed cells by CTL 35-24 [2, 3]: provoked lysis

Source: patent publication US6667037B1, “Isolated peptides which bind to HLA-B35 molecules, larger peptides which contain these, nucleic acid molecules encoding peptides, and uses thereof” (Ludwig Institute for Cancer Research, priority 1998, dated 2003)
